Experimental data reported in patent US4086350A, “Pharmaceutical compositions and method of producing anti-psychotic activity without extrapyramidal symptoms” (priority 1975, dated 1978).

How the values were obtained:
[1] = system: extrapyramidal symptoms; settings: compared with chlorpromazine; cited from earlier work
[2] = system: amphetamine-induced rotation vs. avoidance acquisition; assay: R/A ratio: ED50 amphetamine-induced rotation / ED50 avoidance acquisition; type: in vivo, rat; settings: ratio of i.p. ED50 values in rats
Procedure: (§1) To predict the potential ability of a drug to cause EPS, the ratio of its ED50 (i.p.) for antagonism of amphetamine-induced rotation to its ED50 (i.p.) for blockade of shock avoidance acquisition in the rat, a procedure for assessing antipsychotic activity, (R/A ratio) is calculated.

[3] = system: shock avoidance acquisition in the rat; assay: Antagonism of shock avoidance acquisition in the rat (antipsychotic activity); type: in vivo; settings: ip, rats, i.p., piperidylidene derivatives (Table II), read-out: Antagonism of Avoidance Acquisition, Rats, ED50 (A)
Procedure: as §1

[4] = system: striatal dopamine receptors; assay: Antagonism of amphetamine-induced rotation in rats with unilateral substantia nigra lesions (Ungerstedt); type: in vivo, rat; settings: i.p., piperidylidene derivatives (Table II)
From the text: There is evidence that antipsychotic drugs cause EPS by interfering with neurotransmission in a nigrostriatal dopaminergic pathway. It is thought that they block dopamine receptors in the neostriatum. Therefore, the ability of a drug to block striatal dopamine receptors is a measure of its EPS liability.
To assess the potency of drugs in blocking striatal dopamine receptors a procedure was used which was developed by Ungerstedt [Ungerstedt and Arbuthnott, Brain Res. 24 485 (1970); Ungerstedt, Acta physiol. scand., Suppl. 367, 49 (1971)] using rats with unilateral lesions of the substantia nigra induced by injection of 6-hydroxydopamine. This treatment causes degeneration of the nigrostriatal dopaminergic pathway accompanied by a marked decrease in the dopamine content of the neostriatum on the side of the lesion. Animals with this lesion develop postural and motor asymmetries which are altered by drugs which affect dopaminergic activity. Amphetamine, which releases dopmine and norepinephrine from catecholaminergic neurons, causes these rats to rotate unidirectionally toward the side of the lesion. Since there is a much larger amount of dopamine to be released by amphetamine from the intact nigrostriatal neurons on the non-lesioned side than from those remaining on the lesioned side, the rotational behavior is apparently due to the preponderance of activation of striatal dopamine receptors on the intact side. The ability of a drug to antagonize the rotational behavior is therefore a measure of its ability to block striatal dopamine receptors and is indicative of its potential to produce EPS.
as §1

[5] = piperidylidene derivatives (Table II)

| SMILES | propensity to cause EPS [1] | R/A ratio ([2]; clinically established antipsychotics (Table I)) | ED50 [3] [mg/kg] | Antagonism of Amphetamine-induced Rotation, Rats, ED50 (R) [4] [mg/kg] | R/A ratio [2, 5] |
| --- | --- | --- | --- | --- | --- |
| CSc1ccc2c(c1)N(CCC1CCCCN1C)c1ccccc1S2 (stereo not drawn) [Thioridazine] | known to produce EPS to a lesser extent than chlorpromazine | – | – | – | – |
| CN1CCN(C2=Nc3cc(Cl)ccc3Nc3ccccc32)CC1 [Clozapine, reference compound] | known to produce EPS to a lesser extent than chlorpromazine | 3.8 | – | – | – |
| CN1CCC(=C2c3ccc(Cl)cc3Sc3ccc(F)cc32)CC1 [XV, 4-(6-chloro-2-fluoro-9-thioxanthenylidene)-1-methylpiperidine] | – | – | 0.6 | 8.7 | 14.5 |
| CCCCN1CCC(=C2c3ccccc3Sc3ccc(Cl)cc32)CC1 [XVIII, 4-(2-chloro-9-thioxanthenylidene)-1-n-butylpiperidine] | – | – | 0.94 | 3.1 | 3.3 |
